Data: BindingDB's records for doi:10.1038/sj.bjp.0703341 (Friedrich-Schiller-University Jena, 2000)
Where “and” joins values, the source holds several entries; their conditions need not be identical. Equal values may be shown once.

Assays:
[1] = target: 5-hydroxytryptamine receptor 6 (Rattus norvegicus, UniProt P31388)
[2] = target: 5-hydroxytryptamine receptor 2B (Rattus norvegicus, UniProt P30994)
[3] = target: T1, 5-hydroxytryptamine receptor 2C (Sus scrofa, UniProt G7ZKZ7)
T1 sequence (G7ZKZ7 whole entry): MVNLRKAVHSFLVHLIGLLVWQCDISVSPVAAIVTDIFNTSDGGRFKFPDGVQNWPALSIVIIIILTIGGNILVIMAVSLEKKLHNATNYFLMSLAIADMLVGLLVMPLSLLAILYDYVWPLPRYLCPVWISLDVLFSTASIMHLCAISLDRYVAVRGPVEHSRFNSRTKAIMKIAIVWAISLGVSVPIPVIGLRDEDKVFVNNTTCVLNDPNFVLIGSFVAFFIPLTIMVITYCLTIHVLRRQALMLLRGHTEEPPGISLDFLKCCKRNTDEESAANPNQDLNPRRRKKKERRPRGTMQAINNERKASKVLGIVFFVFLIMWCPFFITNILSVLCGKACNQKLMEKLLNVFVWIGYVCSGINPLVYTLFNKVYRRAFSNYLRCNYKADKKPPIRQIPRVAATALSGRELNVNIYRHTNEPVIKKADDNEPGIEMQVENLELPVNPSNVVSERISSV

[4] = target: 5-hydroxytryptamine receptor 7 (Rattus norvegicus, UniProt P32305)
Chain of 5-hydroxytryptamine receptor 7 (P32305 whole entry): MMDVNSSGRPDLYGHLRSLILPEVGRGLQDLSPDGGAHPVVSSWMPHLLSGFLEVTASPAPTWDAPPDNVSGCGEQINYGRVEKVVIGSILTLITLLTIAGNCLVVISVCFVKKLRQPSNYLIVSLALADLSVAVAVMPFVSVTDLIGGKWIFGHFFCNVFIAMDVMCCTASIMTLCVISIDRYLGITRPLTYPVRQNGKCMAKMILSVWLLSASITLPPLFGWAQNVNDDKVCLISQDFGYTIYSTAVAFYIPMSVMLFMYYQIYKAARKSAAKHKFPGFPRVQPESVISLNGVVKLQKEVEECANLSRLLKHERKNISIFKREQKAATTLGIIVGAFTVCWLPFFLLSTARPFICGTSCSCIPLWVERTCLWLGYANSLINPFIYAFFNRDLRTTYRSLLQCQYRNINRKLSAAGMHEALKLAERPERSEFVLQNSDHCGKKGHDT

Chain of 5-hydroxytryptamine receptor 6 (P31388 whole entry): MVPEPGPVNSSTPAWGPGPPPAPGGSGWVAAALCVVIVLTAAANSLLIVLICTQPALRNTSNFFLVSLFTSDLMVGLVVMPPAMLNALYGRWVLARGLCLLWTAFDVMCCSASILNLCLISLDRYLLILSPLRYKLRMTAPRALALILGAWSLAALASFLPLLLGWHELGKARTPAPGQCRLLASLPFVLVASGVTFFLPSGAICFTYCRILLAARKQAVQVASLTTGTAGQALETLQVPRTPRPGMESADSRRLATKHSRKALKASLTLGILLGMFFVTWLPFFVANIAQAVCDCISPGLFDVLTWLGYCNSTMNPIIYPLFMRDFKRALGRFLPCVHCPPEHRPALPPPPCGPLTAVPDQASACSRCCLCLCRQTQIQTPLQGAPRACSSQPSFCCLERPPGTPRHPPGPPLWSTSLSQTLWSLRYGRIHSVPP
Chain of 5-hydroxytryptamine receptor 2B (P30994 whole entry): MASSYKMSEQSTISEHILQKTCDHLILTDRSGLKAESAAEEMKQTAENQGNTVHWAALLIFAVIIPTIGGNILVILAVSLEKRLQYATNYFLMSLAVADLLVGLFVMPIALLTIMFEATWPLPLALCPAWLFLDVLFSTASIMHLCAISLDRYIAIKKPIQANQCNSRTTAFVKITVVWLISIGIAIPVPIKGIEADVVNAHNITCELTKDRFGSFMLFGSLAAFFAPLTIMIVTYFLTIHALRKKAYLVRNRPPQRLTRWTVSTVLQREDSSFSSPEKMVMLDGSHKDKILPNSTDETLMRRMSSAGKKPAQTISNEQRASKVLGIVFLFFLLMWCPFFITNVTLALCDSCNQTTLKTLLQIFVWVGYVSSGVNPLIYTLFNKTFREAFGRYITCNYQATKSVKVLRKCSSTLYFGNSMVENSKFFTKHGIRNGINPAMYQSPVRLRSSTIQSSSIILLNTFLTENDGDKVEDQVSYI

| SMILES | Ki [1] | Ki [2] | Ki [3] | Ki [4] |
| --- | --- | --- | --- | --- |
| Clc1ccc2c(c1)C(N1CCNCC1)=Nc1ccccc1O2 | 6.31 nM | – | – | – |
| COC(=O)[C@@H]1[C@H]2C[C@H]3c4[nH]c5ccccc5c4CCN3C[C@@H]2CC[C@@H]1O [yohimbic acid methyl ester] | – | 39.8 nM | 1580 nM and > 10000 nM | – |
| CN1CCN(C2=Nc3ccccc3Oc3ccc(Cl)cc32)CC1 [13-chloro-10-(4-methylpiperazin-1-yl)-2-oxa-9-azatricyclo[9.4.0.0^{3,8}]pentadeca-1(11),3,5,7,9,12,14-heptaene] | 15.9 nM | – | – | 39.8 nM |
| CC[C@@H](CO)NC(=O)[C@@H]1C=C2c3cccc4c3c(cn4C)C[C@H]2N(C)C1 | 398 nM | – | 2.51 nM | – |
| CN(C)CCC=C1c2ccccc2CCc2ccccc21 | 63.1 nM | – | – | 126 nM |
| CSc1ccc2c(c1)C(N1CCN(C)CC1)Cc1ccccc1S2 (stereo not drawn) [methanesulfonic acid;1-methyl-4-(3-methylsulfanyl-5,6-dihydrobenzo[b][1]benzothiepin-5-yl)piperazine] | – | – | 25.1 nM | – |
| O=C(CCCN1CCC2(CC1)C(=O)NCN2c1ccccc1)c1ccc(F)cc1 [8-[4-(4-fluorophenyl)-4-oxidanylidene-butyl]-1-phenyl-1,3,8-triazaspiro[4.5]decan-4-one] | – | – | 1260 nM | – |
| CN(C)CC/C=C1\c2ccccc2Sc2ccc(Cl)cc21 | 3.16 nM | – | – | 5.01 nM |
| CC(O)C(C)OC(=O)C1CC2c3cccc4c3c(cn4C(C)C)CC2N(C)C1 (stereo not drawn) [CAS_60634-51-7] | – | 6.31 nM | 7.94 nM | – |
| CN1C[C@@H](NS(=O)(=O)N(C)C)C[C@@H]2c3cccc4c3c(cn4C)C[C@H]21 [MESULERGINE] | 1580 nM | – | 1.58 nM | 6.31 nM |
| CN1C[C@H](CNC(=O)OCc2ccccc2)C[C@@H]2c3cccc4c3c(cn4C)C[C@H]21 [METERGOLINE] | 31.6 nM | – | 0.63 nM | – |
| OCCN1CCN(CCCN2c3ccccc3Sc3ccc(Cl)cc32)CC1 [4-[3-(2-chlorophenothiazin-10-yl)propyl]-1-piperazineethanol] | 15.9 nM | – | – | 25.1 nM |
| Cc1nc2sccn2c(=O)c1CCN1CCC(=C(c2ccc(F)cc2)c2ccc(F)cc2)CC1 | 39.8 nM | – | 2.51 nM | – |
| CN1CCC(=C2c3ccccc3CCc3sccc32)CC1 [NSC_27400] | – | – | 7.94 nM | – |
| O=C(c1ccc(F)cc1)C1CCN(CCn2c(=O)[nH]c3ccccc3c2=O)CC1 [3-(2-{4-[(4-fluorophenyl)carbonyl]piperidin-1-yl}ethyl)-1,2,3,4-tetrahydroquinazoline-2,4-dione] | > 10000 nM | 3160 nM | 100 nM | – |
